Patent US20240041838A1, “METHODS AND COMPOSITIONS FOR INHIBITION OF NEUTROPHIL RECRUITMENT IN MYCOCARDIAL ISCHEMIA-REPERFUSION INJURY” (University of Connecticut, priority 2022, published 2024)

Tests used:
[1] = tested on: neutrophils; conditions: reported; cited from earlier work
[2] = tested on: IL-8-induced Ca^2+ signal in neutrophils; assay: intracellular Ca2+ flux by Fluo-4 time-resolved flow cytometry; type: cell-based, human; conditions: 10 μM, RT 1 hour; 1 μg·mL^−1 IL-8
Method: To monitor the dynamics of intracellular calcium (Ca^2+) flux, neutrophils (2×10^6 cells·mL^−1 in RPMI-1640 without phenol red plus 2% HSA) were incubated with Fluo-4 (4 μg·mL^−1) for one hour at RT. After washes, neutrophils were resuspended in RPMI-1640 without phenol red plus 2% HSA and assessed by an LSRII analyzer (BD Biosciences, San Jose, CA). One minute after analyzing, 1 μg·mL^−1 IL-8 was added to the cells. Cells were put back into the analyzer for another 9 minutes. The curves showing the dynamics of intracellular Ca^2+ flux (FIG. 2H) were generated by FlowJo software (version 10.6). The quantification of Fluo-4 MFI (FIG. 2I) was analyzed by FlowJo software (version 10.6) and obtained from three individual experiments.

[3] = tested on: human neutrophils; assay: total ROS production of isolated human neutrophils after PMA; type: cell-based; conditions: 10 μM; after 50 min of 100 nM PMA; ICAM-1-coated wells
Method: ROS production of isolated human neutrophils was quantified by using the Total ROS Assay kit from Invitrogen. A black, clear bottom, non-treated 96-well plate was used in this assay. Before the assay, the 96-well plate was coated with 10 μg·mL^−1 human ICAM-1-Fc at RT for 2 hours and washed twice with PBS. […] After centrifuging at 300×g, RT for 2 min, cells were resuspended at 10^6 cells·mL^−1 in the ROS Assay Stain Solution from the kit and incubated with 2 μg·mL^−1 mouse anti-human CD18 blocking mAb (TS1/18 to block neutrophil adhesion) or isotype control at RT for 10 min. The 100 μL·well^−1 neutrophils (3 replicates per group) were seeded into the ICAM-1-coated 96-well plate. The background ROS before stimulation was measured by Cytation 1 Cell Imaging Multi-Mode Reader (Filter set: Green, Ex: 485/20 nm, Em: 528/20 nm, BioTek, Santa Clara, CA). Then 100 nM PMA was added to each well, and ROS production was measured by Cytation 1 Cell Imaging Multi-Mode Reader every 5 minutes.

[4] = tested on: mouse myocardial I/R injury; assay: neutrophil recruitment in mouse myocardial I/R injury (multi-photon microscopy, flow cytometry); type: in vivo; conditions: I/R 35/60 minutes
Source text: C57BL/6J wild-type mice (000664; JAX) were originally obtained from the Jackson Laboratory. LysM-EGFP or Lyz2-EGFP mice were originally obtained from Albert Einstein College of Medicine through a material transfer agreement. Mice were fed a standard rodent chow diet and were housed in microisolator cages in a pathogen-free facility in the Center for Comparative Medicine at UConn Health. All experiments followed the UConn Health Institutional Animal Care and Use Committee (IACUC) guidelines, and approval for the use of rodents was obtained from the UConn Health IACUC according to criteria outlined in the Guide for the Care and Use of Laboratory Animals from the National Institutes of Health. Both male and female mice aged from 12 to 16 weeks were used in the experiments.
Mice were subjected to 35 minutes of myocardial ischemia and 1 (for multi-photon microscopy and flow cytometry) or 22-26 (for TTC-phthalo-blue staining) hours of reperfusion. […] Briefly, anesthesia was induced with an intraperitoneal injection of ketamine hydrochloride (125 mg·kg^−1) and xylazine (12.5 mg·kg^−1). Mice were intubated with 24G×3/4″ Surflo i.v. catheter and ventilated using MiniVent 845 (Harvard Apparatus).
Surgeries were performed under an SMZ168 Stereo Zoom microscope (Motic). Ischemia was achieved by ligating the left anterior descending coronary artery (LAD) using a 6-0 silk suture with a section of PE-10 tubing placed over the LAD, 1 mm from the tip of the normally positioned left atrium. One important problem in drug administration is water solubility, which greatly affects drug absorption and bioavailability. […] In clinics, the primary percutaneous coronary intervention aims to be performed less than 90 min (within 60 min is preferable) after the patient arrives. […] After occlusion for 35 minutes, reperfusion was initiated by releasing the ligature and removing the PE-10 tubing. The chest wall was closed, the animal extubated, and body temperature was maintained by use of a 37° C. warm pad. Hearts were harvested 1 or 22-26 hours later. The loosened suture was left in place and then retied for the purpose of evaluating the ischemic area. Sham control and no drug administered control were performed as well.
To assess the neutrophil recruitment in myocardial I/R injury, LysM-EGFP mice underwent 35 minutes of ischemia and 1 hour of reperfusion. […] After being fixed with 1% PFA and washes with ice-cold PBS, cell fluorescence was assessed with an LSRII (BD Biosciences, San Jose, CA) and analyzed with FlowJo software (version 10.6). […]

[5] = tested on: human neutrophils; conditions: 1 and 4 hours of incubation; previous study; cited from earlier work

## CC(C)(C)C(=O)/C(=C\c1cccc([N+](=O)[O-])c1)n1cncn1 [Nexinhib20, 4,4-dimethyl-1-(3-nitrophenyl)-2-(1H-1,2,4-triazol-1-yl)-1-penten-3-one]
[1]
  inhibition of neutrophil extracellular superoxide anion production: about 50%
[2]
  IL-8-induced Ca^2+ signal (Fluo-4): potently blocked
[3]
  total ROS production: significantly reduced
[4]; 1 μmol per mouse i.p.
  neutrophils retained in the blood circulation compared to vehicle controls: doubled
[4]; 1 μmol per mouse i.p., vehicle about 50%
  percentage of neutrophils in heart leukocytes: about 30%
[4]; 1 μmol per mouse i.p., vehicle about 6000
  heart neutrophil counts (CD45^+Ly6G^+): about 2000
[4]; LysM-EGFP mice, 1 μmol per mouse i.p. 30 minutes before reperfusion
  LysM-GFP^+ leukocyte recruitment to the coronary artery (EGFP fluorescence): significantly limited
[5]
  cell death compared to DMSO vehicle controls: did not induce a significant increase in cell death
